Measured values reported in ChEMBL document CHEMBL5620354, “Development of isoselenazolium chlorides as selective pyruvate kinase isoform M2 inhibitors” (Eur J Med Chem, 2023).

Legend:
MCF7 = assay: cells; conditions: Homo sapiens, MCF7, 48 h
Description: Cytotoxicity against human MCF7 cells assessed as inhibition of cell growth incubated for 48 hrs by MTT assay

Pyruvate kinase PKM [1] = biological target: T1, Pyruvate kinase PKM (Homo sapiens, UniProt P14618); assay: Inhibition of PKM1 (unknown origin); design: concentration or dose not given beside the values; conditions: concentration not given here
Target sequence in this assay (P14618 2-531 limits assumed): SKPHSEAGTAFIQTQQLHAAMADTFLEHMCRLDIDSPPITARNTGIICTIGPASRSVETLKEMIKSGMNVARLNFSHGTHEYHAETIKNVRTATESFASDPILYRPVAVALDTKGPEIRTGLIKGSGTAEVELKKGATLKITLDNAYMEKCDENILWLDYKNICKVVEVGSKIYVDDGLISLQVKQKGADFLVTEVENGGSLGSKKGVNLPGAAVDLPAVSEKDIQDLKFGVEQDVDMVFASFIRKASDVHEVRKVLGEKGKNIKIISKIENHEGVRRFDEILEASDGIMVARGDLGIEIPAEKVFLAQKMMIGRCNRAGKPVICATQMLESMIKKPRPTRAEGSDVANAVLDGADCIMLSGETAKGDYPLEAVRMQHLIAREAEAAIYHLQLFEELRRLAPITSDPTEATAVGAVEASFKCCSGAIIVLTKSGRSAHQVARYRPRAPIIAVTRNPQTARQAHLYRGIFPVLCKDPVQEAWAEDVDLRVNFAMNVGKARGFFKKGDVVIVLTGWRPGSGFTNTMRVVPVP

Pyruvate kinase PKM [2] = biological target: T1, Pyruvate kinase PKM; assay: Inhibition of N-terminal his8-tagged PKM2 (unknown origin)
Target sequence in this assay (P14618 whole entry): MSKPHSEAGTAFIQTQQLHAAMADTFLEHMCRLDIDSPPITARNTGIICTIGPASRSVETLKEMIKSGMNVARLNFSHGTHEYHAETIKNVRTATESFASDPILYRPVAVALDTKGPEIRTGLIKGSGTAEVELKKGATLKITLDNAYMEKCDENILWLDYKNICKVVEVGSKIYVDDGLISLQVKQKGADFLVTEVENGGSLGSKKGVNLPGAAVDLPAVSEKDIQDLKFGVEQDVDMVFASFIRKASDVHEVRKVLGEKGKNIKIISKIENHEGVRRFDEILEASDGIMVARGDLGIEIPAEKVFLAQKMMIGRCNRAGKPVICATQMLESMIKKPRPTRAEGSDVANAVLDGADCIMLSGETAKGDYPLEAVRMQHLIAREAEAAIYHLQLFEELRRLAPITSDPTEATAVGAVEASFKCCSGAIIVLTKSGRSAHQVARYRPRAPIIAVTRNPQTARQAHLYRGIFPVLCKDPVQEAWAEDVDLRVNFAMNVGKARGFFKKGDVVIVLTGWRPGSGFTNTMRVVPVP

MDA-MB-231 = assay: Cytotoxicity against human MDA-MB-231 cells assessed as inhibition of cell growth incubated for 48 hrs by MTT assay; type: functional, cell-based; conditions: MDA-MB-231, 48 h
[3] = biological target: Pyruvate kinase PKLR (Homo sapiens) (UniProt P30613); assay: Inhibition of PKR (unknown origin) at 1 uM relative to control
[4] = Cytotoxicity against rat H9c2 cells assessed as inhibition of cell growth incubated for 48 hrs by MTT assay; type: toxicity, cell-based
Oryctolagus cuniculus = species on record: Oryctolagus cuniculus; assay: Inhibition of rabbit LDH at 1 uM relative to control
4T1 = assay: Cytotoxicity against mouse 4T1 cells assessed as inhibition of cell growth incubated for 48 hrs by MTT assay; type: functional, cell-based; conditions: 4T1, 48 h
A549 = assay: cells; conditions: Homo sapiens, A549, 48 h
Description: Cytotoxicity against human A549 cells assessed as inhibition of cell growth incubated for 48 hrs by MTT assay

Jurkat = assay: Cytotoxicity against human Jurkat cells assessed as inhibition of cell growth incubated for 48 hrs by MTT assay; type: functional, cell-based
HCC1937 = assay: Cytotoxicity against human HCC1937 cells assessed as inhibition of cell growth incubated for 48 hrs by MTT assay; type: functional, cell-based; conditions: HCC1937, 48 h
Pyruvate kinase PKM [5] = biological target: T1, Pyruvate kinase PKM; assay: Binding affinity to PKM2 (unknown origin) assessed as protein destabilization by differential scanning fluorimetry; conditions: dose 2.5-10 µM
Target sequence in this assay (P14618 2-531 limits assumed): as the sequence (P14618 2-531 limits assumed) above

Pyruvate kinase PKM [6] = biological target: T1, Pyruvate kinase PKM; assay: Inhibition of PKM2 (unknown origin) assessed as decrease in monomer population at 5 uM by analytical size-exclusion chromatography relative to control
Target sequence in this assay (P14618 2-531 limits assumed): as above

Pyruvate kinase PKM [7] = biological target: T1, Pyruvate kinase PKM; assay: Inhibition of PKM2 (unknown origin) assessed as decrease in dimer population by analytical size-exclusion chromatography; conditions: dose 5.0 µM
Target sequence in this assay (P14618 2-531 limits assumed): as above

Pyruvate kinase PKM [8] = biological target: T1, Pyruvate kinase PKM; assay: Inhibition of PKM2 (unknown origin) assessed as increase in tetramer ratio by analytical size-exclusion chromatography; conditions: dose 5.0 µM
Target sequence in this assay (P14618 2-531 limits assumed): as above

Pyruvate kinase PKM [9] = biological target: T1, Pyruvate kinase PKM; assay: Inhibition of PKM2 (unknown origin) assessed as decrease in dimer population at 5 uM by analytical size-exclusion chromatography relative to control
Target sequence in this assay (P14618 2-531 limits assumed): as above

Pyruvate kinase PKM [10] = biological target: T1, Pyruvate kinase PKM; assay: Inhibition of N-terminal his8-tagged PKM2 (unknown origin) in presence of FBP by Michaelis-menten analysis
Target sequence in this assay (P14618 whole entry): as the sequence (P14618 whole entry) above

Pyruvate kinase PKM [11] = biological target: T1, Pyruvate kinase PKM; assay: Inhibition of PKM2 (unknown origin) assessed as decrease in dimer population at 5 uM in presence of FBP by analytical size-exclusion chromatography relative to control

Chain of Pyruvate kinase PKLR (Homo sapiens) (P30613 whole entry, looked up): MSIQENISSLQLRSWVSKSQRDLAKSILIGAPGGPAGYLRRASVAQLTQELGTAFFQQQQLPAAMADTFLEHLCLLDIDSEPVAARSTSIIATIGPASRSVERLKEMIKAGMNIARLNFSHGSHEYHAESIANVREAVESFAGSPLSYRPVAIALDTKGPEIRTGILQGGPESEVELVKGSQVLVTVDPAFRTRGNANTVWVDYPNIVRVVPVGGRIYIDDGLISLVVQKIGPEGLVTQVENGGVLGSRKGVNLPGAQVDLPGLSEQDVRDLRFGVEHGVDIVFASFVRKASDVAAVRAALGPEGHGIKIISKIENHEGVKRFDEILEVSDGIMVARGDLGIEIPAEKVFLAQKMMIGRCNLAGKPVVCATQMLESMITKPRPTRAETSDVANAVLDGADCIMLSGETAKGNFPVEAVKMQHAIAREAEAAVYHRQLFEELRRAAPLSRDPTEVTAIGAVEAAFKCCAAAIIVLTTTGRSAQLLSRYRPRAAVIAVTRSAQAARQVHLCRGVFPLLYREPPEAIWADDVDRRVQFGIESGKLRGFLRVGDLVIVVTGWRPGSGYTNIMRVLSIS

O=C(O)c1cc[n+]2[se]c(C3(O)CCCCC3)c(Br)c2c1
IC50 (MCF7): > 10000 nM | inhibition (Pyruvate kinase PKM [1]): 4% | IC50 (Pyruvate kinase PKM [2]): 1060 nM | IC50 (MDA-MB-231): 6120 nM | inhibition [3]: 5% | IC50 at 48 h [4]: 7820 nM | inhibition (Oryctolagus cuniculus): 9% | IC50 (4T1; read-out: IC50): 6810 nM | IC50 (A549): 7030 nM | IC50 (Jurkat): 6610 nM | IC50 (HCC1937): 5820 nM

O=C(O)c1ccc2c(Br)c(C3(O)CCCCC3)[se][n+]2c1
IC50 (MCF7): > 10000 nM | IC50 (Pyruvate kinase PKM [2]): > 1000 nM | IC50 at 48 h [4]: 3550 nM | IC50 (Jurkat): 3260 nM | IC50 (HCC1937): 3850 nM

NC(=O)c1cccc2c(Br)c(C3(O)CCCCC3)[se][n+]12
IC50 (MCF7): 3850 nM | IC50 (Pyruvate kinase PKM [2]): > 1000 nM | IC50 at 48 h [4]: 2630 nM | IC50 (Jurkat): 1880 nM | IC50 (HCC1937): 1330 nM

NC(=O)c1cc[n+]2[se]c(C3(O)CCCCC3)c(Br)c2c1
Activity (Pyruvate kinase PKM [5]): Dose-Dependent Effect | IC50 (MCF7): 2220 nM | inhibition (Pyruvate kinase PKM [6]): 38% | inhibition (Pyruvate kinase PKM [1]): 15% | IC50 (Pyruvate kinase PKM [2]): 420 nM | inhibition (Pyruvate kinase PKM [7]): Dose-Dependent Effect | inhibition (Pyruvate kinase PKM [8]): Dose-Dependent Effect | IC50 (MDA-MB-231): 1150 nM | inhibition (Pyruvate kinase PKM [9]): 69.1% | inhibition [3]: 37% | IC50 at 48 h [4]: 1410 nM | IC50 (Pyruvate kinase PKM [10]): 572 nM | inhibition (Oryctolagus cuniculus): 6% | inhibition (Pyruvate kinase PKM [11]): 43.2% | IC50 (4T1; read-out: IC50): 1410 nM | IC50 (A549): 2810 nM | IC50 (Jurkat): 1000 nM | IC50 (HCC1937): 600 nM

COC(=O)c1cc[n+]2[se]c(C3(O)C4CC5CC(C4)CC3C5)c(Br)c2c1 (stereo not drawn)
IC50 (MCF7): 6870 nM | IC50 (Pyruvate kinase PKM [2]): > 1000 nM | IC50 at 48 h [4]: 4760 nM | IC50 (Jurkat): 6180 nM | IC50 (HCC1937): 2890 nM

NC(=O)c1cc[n+]2[se]c(C3(O)CCC(F)(F)CC3)c(Br)c2c1
IC50 (MCF7): 1000 nM | inhibition (Pyruvate kinase PKM [1]): 26% | IC50 (Pyruvate kinase PKM [2]): 362 nM | IC50 (MDA-MB-231): 1360 nM | inhibition [3]: 40% | IC50 at 48 h [4]: 1410 nM | IC50 (Pyruvate kinase PKM [10]): 542 nM | inhibition (Oryctolagus cuniculus): 13% | IC50 (4T1; read-out: IC50): 1250 nM | IC50 (A549): 3170 nM | IC50 (Jurkat): 1430 nM | IC50 (HCC1937): 600 nM

COC(=O)c1cc[n+]2[se]c(C3([O-])CCC3)c(Br)c2c1
IC50 (MCF7): 2800 nM | inhibition (Pyruvate kinase PKM [1]): 26% | IC50 (Pyruvate kinase PKM [2]): 854 nM | IC50 (MDA-MB-231): 6510 nM | inhibition [3]: 20% | IC50 at 48 h [4]: 2970 nM | IC50 (Pyruvate kinase PKM [10]): 603 nM | inhibition (Oryctolagus cuniculus): 7% | IC50 (4T1; read-out: IC50): > 10000 nM | IC50 (A549): 9120 nM | IC50 (Jurkat): 3240 nM | IC50 (HCC1937): 3030 nM

COc1cccc2c1C(=O)c1c(O)c3c(c(O)c1C2=O)C[C@@](O)(C(=O)CO)C[C@@H]3O[C@H]1C[C@H](N)[C@H](O)[C@H](C)O1 [DOXORUBICIN]
IC50 (MCF7): 470 nM | IC50 (MDA-MB-231): 410 nM | IC50 at 48 h [4]: 3900 nM | IC50 (4T1): 65 nM | IC50 (A549): 230 nM | IC50 (Jurkat): 320 nM | IC50 (HCC1937): 1080 nM

COC(=O)c1ccc2c(Br)c(C3(O)CCCCC3)[se][n+]2c1
IC50 (MCF7): 870 nM | inhibition (Pyruvate kinase PKM [1]): 16% | IC50 (Pyruvate kinase PKM [2]): 545 nM | IC50 (MDA-MB-231): 430 nM | inhibition [3]: 39% | IC50 at 48 h [4]: 890 nM | IC50 (Pyruvate kinase PKM [10]): 303 nM | inhibition (Oryctolagus cuniculus): 10% | IC50 (4T1; read-out: IC50): 700 nM | IC50 (A549): 1310 nM | IC50 (Jurkat): 250 nM | IC50 (HCC1937): 310 nM

[2H]C([2H])([2H])OC(=O)c1cc[n+]2[se]c(C3(O)CCCCC3)c(Br)c2c1.[Cl-]
IC50 (MCF7): 380 nM | IC50 (Pyruvate kinase PKM [2]): 478 nM | IC50 (MDA-MB-231): 400 nM | IC50 at 48 h [4]: 640 nM | IC50 (Pyruvate kinase PKM [10]): 610 nM | IC50 (4T1; read-out: IC50): 1110 nM | IC50 (A549): 1200 nM | IC50 (Jurkat): 490 nM | IC50 (HCC1937): 540 nM

O=c1cc(-c2ccc(O)cc2)oc2cc(O)cc(O)c12 [APIGENIN]
IC50 (Pyruvate kinase PKM [2]): > 20000 nM | IC50 (Pyruvate kinase PKM [10]): > 20000 nM

COC(=O)c1cc2c(Br)c(C3(O)CCCCC3)[se][n+]2cc1F
IC50 (MCF7): 1080 nM | inhibition (Pyruvate kinase PKM [1]): 29% | IC50 (Pyruvate kinase PKM [2]): 897 nM | IC50 (MDA-MB-231): 1380 nM | inhibition [3]: 15% | IC50 at 48 h [4]: 1680 nM | inhibition (Oryctolagus cuniculus): 7% | IC50 (4T1; read-out: IC50): 2340 nM | IC50 (A549): 2930 nM | IC50 (Jurkat): 1160 nM | IC50 (HCC1937): 1190 nM

COC(=O)c1cc[n+]2[se]c(C3([O-])CCCC3)c(Br)c2c1
IC50 (MCF7): 360 nM | inhibition (Pyruvate kinase PKM [1]): 20% | IC50 (Pyruvate kinase PKM [2]): 380 nM | IC50 (MDA-MB-231): 1660 nM | inhibition [3]: 42% | IC50 at 48 h [4]: 770 nM | IC50 (Pyruvate kinase PKM [10]): 517 nM | inhibition (Oryctolagus cuniculus): 6% | IC50 (4T1; read-out: IC50): 2040 nM | IC50 (A549): 8700 nM | IC50 (Jurkat): 480 nM | IC50 (HCC1937): 410 nM

NC(=O)c1ccc2c(Br)c(C3(O)CCCCC3)[se][n+]2c1
IC50 (MCF7): 2300 nM | IC50 (Pyruvate kinase PKM [2]): > 1000 nM | IC50 at 48 h [4]: 1270 nM | IC50 (Jurkat): 600 nM | IC50 (HCC1937): 1500 nM

NC(=O)c1cc[n+]2[se]c(C3(O)C4CC5CC(C4)CC3C5)c(Br)c2c1 (stereo not drawn)
IC50 (MCF7): 610 nM | inhibition (Pyruvate kinase PKM [1]): 21% | IC50 (Pyruvate kinase PKM [2]): 1010 nM | IC50 (MDA-MB-231): 650 nM | inhibition [3]: 11% | IC50 at 48 h [4]: 910 nM | inhibition (Oryctolagus cuniculus): 6% | IC50 (4T1; read-out: IC50): 560 nM | IC50 (A549): 2210 nM | IC50 (Jurkat): 910 nM | IC50 (HCC1937): 740 nM

COC(=O)c1cc[n+]2[se]c(C3(O)CCC(F)(F)CC3)c(Br)c2c1
IC50 (MCF7): 280 nM | inhibition (Pyruvate kinase PKM [1]): 11% | IC50 (Pyruvate kinase PKM [2]): 637 nM | IC50 (MDA-MB-231): 480 nM | inhibition [3]: 29% | IC50 at 48 h [4]: 1060 nM | IC50 (Pyruvate kinase PKM [10]): 572 nM | inhibition (Oryctolagus cuniculus): 2% | IC50 (4T1; read-out: IC50): 1480 nM | IC50 (A549): 1160 nM | IC50 (Jurkat): 480 nM | IC50 (HCC1937): 240 nM

CCCCCCCCCCCCCC(C)(O)c1[se][n+]2ccc(C(N)=O)cc2c1Br (stereo not drawn)
IC50 (MCF7): 1010 nM | inhibition (Pyruvate kinase PKM [1]): 23% | IC50 (Pyruvate kinase PKM [2]): 901 nM | IC50 (MDA-MB-231): 2420 nM | inhibition [3]: 29% | IC50 at 48 h [4]: 1910 nM | inhibition (Oryctolagus cuniculus): 9% | IC50 (4T1; read-out: IC50): 4320 nM | IC50 (A549): 3720 nM | IC50 (Jurkat): 2000 nM | IC50 (HCC1937): 910 nM

COC(=O)c1cc(C)[n+]2[se]c(C3(O)CCCCC3)c(Br)c2c1
IC50 (MCF7): 300 nM | inhibition (Pyruvate kinase PKM [1]): 10% | IC50 (Pyruvate kinase PKM [2]): 1360 nM | IC50 (MDA-MB-231): 370 nM | inhibition [3]: 28% | IC50 at 48 h [4]: 900 nM | inhibition (Oryctolagus cuniculus): 7% | IC50 (4T1; read-out: IC50): 960 nM | IC50 (A549): 1120 nM | IC50 (Jurkat): 450 nM | IC50 (HCC1937): 340 nM

CCCCCCCCCCCCCC(C)(O)c1[se][n+]2ccc(C(=O)OC)cc2c1Br (stereo not drawn)
IC50 (MCF7): 3790 nM | IC50 (Pyruvate kinase PKM [2]): > 1000 nM | IC50 at 48 h [4]: 3630 nM | IC50 (Jurkat): 3380 nM | IC50 (HCC1937): 2450 nM

OC1(c2[se][n+]3ccccc3c2Br)CCCCC1
IC50 (Pyruvate kinase PKM [2]): 2920 nM | IC50 (Pyruvate kinase PKM [10]): 2730 nM
